Source: PubChem BioAssay (NCI)
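In this assay, cells in 96-well plates receive the compound at five concentrations for 48 hours. Endpoints are linearly interpolated between the surrounding concentrations. The concentration for 50% growth inhibition is given as GI50. TGI denotes the concentration required for complete inhibition of growth.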

How the values were obtained:
Experiment in all cases: NCI anticancer screen, dose series, 48 h
[1] = test system: ACHN renal
[2] = test system: M14 melanoma
[3] = test system: NCI/ADR-RES ovarian
[4] = test system: A549 NSCLC
[5] = test system: OVCAR-8 ovarian
[6] = test system: SK-MEL-5 melanoma
[7] = test system: MDA-MB-231 breast
[8] = test system: UO-31 renal
[9] = test system: DU-145 prostate
[10] = test system: SR leukemia
[11] = test system: HCC-2998 colon
[12] = test system: SK-OV-3 ovarian
[13] = test system: SF-268 CNS
[14] = test system: SNB-19 CNS
[15] = test system: SNB-75 CNS
[16] = test system: MALME-3M melanoma
[17] = test system: HOP-92 NSCLC
[18] = test system: SF-539 CNS
[19] = test system: OVCAR-5 ovarian
[20] = test system: EKVX NSCLC
[21] = test system: MOLT-4 leukemia
[22] = test system: SF-295 CNS
[23] = test system: CCRF-CEM leukemia
[24] = test system: HS 578T breast
[25] = test system: CAKI-1 renal
[26] = test system: RXF 393 renal
[27] = test system: A498 renal
[28] = test system: HT29 colon
[29] = test system: NCI-H23 lung
[30] = test system: SW-620 colon
[31] = test system: COLO 205 colon
[32] = test system: NCI-H522 lung
[33] = test system: 786-0 renal
[34] = test system: PC-3 prostate
[35] = test system: IGROV1 ovarian
[36] = test system: SN12C renal
[37] = test system: UACC-257 melanoma
[38] = test system: RPMI-8226 leukemia
[39] = test system: OVCAR-4 ovarian
[40] = test system: U251 CNS
[41] = test system: T-47D breast
[42] = test system: NCI-H226 lung
[43] = test system: HCT-15 colon
[44] = test system: TK-10 renal
[45] = test system: HL-60(TB) leukemia
[46] = test system: OVCAR-3 ovarian
[47] = test system: BT-549 breast
[48] = test system: SK-MEL-2 melanoma
[49] = test system: UACC-62 melanoma
[50] = test system: MDA-MB-435
[51] = test system: HOP-62 NSCLC
[52] = test system: K-562 leukemia
[53] = test system: HCT-116 colon
[54] = test system: LOX IMVI melanoma
[55] = test system: SK-MEL-28 melanoma
[56] = test system: MCF7 breast
[57] = test system: KM12 colon
[58] = test system: NCI-H460 lung

Q: Which GI50 [1] does the source give for `CCOC(=O)c1ccc2c(c1)[n+](=O)c(C(=O)C1CCCS1)c(C(F)(F)F)n2[O-]` (stereo unspecified) here?
A: 0.172 µM

Q: What about the TGI [1] of the same compound?
A: 0.315 µM

Q: What about the GI50 [2] of the same compound?
A: 0.388 µM

Q: What about the TGI [2] of the same compound?
A: 1.12 µM

Q: And the GI50 [3]?
A: 0.271 µM

Q: What about the TGI [3] of the same compound?
A: 0.797 µM

Q: What about the GI50 [4] of the same compound?
A: 0.274 µM

Q: What about the TGI [4] of the same compound?
A: 0.764 µM

Q: What about the GI50 [5] of the same compound?
A: 0.239 µM

Q: And the TGI [5]?
A: 0.597 µM

Q: What about the GI50 [6] of the same compound?
A: 0.964 µM

Q: What about the TGI [6] of the same compound?
A: 2.31 µM

Q: And the GI50 [7]?
A: 0.49 µM

Q: What about the TGI [7] of the same compound?
A: 1.78 µM

Q: What about the GI50 [8] of the same compound?
A: 0.156 µM

Q: And the TGI [8]?
A: 0.303 µM

Q: And the GI50 [9]?
A: 0.428 µM

Q: And the TGI [9]?
A: 1.05 µM

Q: And the GI50 [10]?
A: 0.208 µM

Q: And the TGI [10]?
A: 0.428 µM

Q: What about the GI50 [11] of the same compound?
A: 0.675 µM

Q: And the TGI [11]?
A: 2 µM

Q: And the GI50 [12]?
A: 1.37 µM

Q: And the TGI [12]?
A: 2.67 µM

Q: And the GI50 [13]?
A: 0.197 µM

Q: What about the TGI [13] of the same compound?
A: 0.458 µM

Q: And the GI50 [14]?
A: 1.25 µM

Q: What about the TGI [14] of the same compound?
A: 2.57 µM

Q: What about the GI50 [15] of the same compound?
A: 1.13 µM

Q: And the TGI [15]?
A: 2.33 µM

Q: And the GI50 [16]?
A: 0.581 µM

Q: What about the TGI [16] of the same compound?
A: 1.98 µM

Q: And the GI50 [17]?
A: 0.208 µM

Q: And the TGI [17]?
A: 1.17 µM

Q: And the GI50 [18]?
A: 0.722 µM

Q: What about the TGI [18] of the same compound?
A: 2.04 µM

Q: What about the GI50 [19] of the same compound?
A: 1.42 µM

Q: What about the TGI [19] of the same compound?
A: 2.76 µM

Q: And the GI50 [20]?
A: 1.19 µM

Q: And the TGI [20]?
A: 2.61 µM

Q: And the GI50 [21]?
A: 0.237 µM

Q: And the TGI [21]?
A: 0.519 µM

Q: And the GI50 [22]?
A: 0.749 µM

Q: And the TGI [22]?
A: 2.07 µM

Q: What about the GI50 [23] of the same compound?
A: 0.233 µM

Q: What about the TGI [23] of the same compound?
A: 0.55 µM

Q: What about the GI50 [24] of the same compound?
A: 2.12 µM

Q: And the TGI [24]?
A: 6.35 µM

Q: What about the GI50 [25] of the same compound?
A: 0.189 µM

Q: And the TGI [25]?
A: 0.429 µM

Q: And the GI50 [26]?
A: 0.603 µM

Q: What about the TGI [26] of the same compound?
A: 1.86 µM

Q: And the GI50 [27]?
A: 1.55 µM

Q: And the TGI [27]?
A: 3.07 µM

Q: And the GI50 [28]?
A: 0.172 µM

Q: And the TGI [28]?
A: 0.32 µM

Q: And the GI50 [29]?
A: 0.83 µM

Q: And the TGI [29]?
A: 2.2 µM

Q: What about the GI50 [30] of the same compound?
A: 0.202 µM

Q: What about the TGI [30] of the same compound?
A: 0.49 µM

Q: What about the GI50 [31] of the same compound?
A: 0.217 µM

Q: And the TGI [31]?
A: 0.459 µM

Q: What about the GI50 [32] of the same compound?
A: 0.187 µM

Q: And the TGI [32]?
A: 0.443 µM

Q: What about the GI50 [33] of the same compound?
A: 0.406 µM

Q: What about the TGI [33] of the same compound?
A: 1.46 µM

Q: What about the GI50 [34] of the same compound?
A: 0.248 µM

Q: What about the TGI [34] of the same compound?
A: 0.716 µM

Q: And the GI50 [35]?
A: 0.198 µM

Q: What about the TGI [35] of the same compound?
A: 0.417 µM

Q: What about the GI50 [36] of the same compound?
A: 0.448 µM

Q: And the TGI [36]?
A: 1.81 µM

Q: What about the GI50 [37] of the same compound?
A: 0.474 µM

Q: What about the TGI [37] of the same compound?
A: 1.6 µM

Q: And the GI50 [38]?
A: 0.702 µM

Q: And the TGI [38]?
A: 2.08 µM

Q: What about the GI50 [39] of the same compound?
A: 0.22 µM

Q: And the TGI [39]?
A: 0.534 µM

Q: What about the GI50 [40] of the same compound?
A: 0.169 µM

Q: And the TGI [40]?
A: 0.315 µM

Q: And the GI50 [41]?
A: 0.493 µM

Q: And the TGI [41]?
A: 1.92 µM

Q: And the GI50 [42]?
A: 0.835 µM

Q: And the TGI [42]?
A: 2.65 µM

Q: And the GI50 [43]?
A: 0.264 µM

Q: And the TGI [43]?
A: 0.824 µM

Q: And the GI50 [44]?
A: 0.288 µM

Q: What about the TGI [44] of the same compound?
A: 0.765 µM

Q: What about the GI50 [45] of the same compound?
A: 0.258 µM

Q: What about the TGI [45] of the same compound?
A: 0.643 µM

Q: And the GI50 [46]?
A: 0.275 µM

Q: What about the TGI [46] of the same compound?
A: 0.713 µM

Q: And the GI50 [47]?
A: 0.327 µM

Q: What about the TGI [47] of the same compound?
A: 1.08 µM

Q: And the GI50 [48]?
A: 1.6 µM

Q: What about the TGI [48] of the same compound?
A: 3.16 µM

Q: What about the GI50 [49] of the same compound?
A: 1.15 µM

Q: And the TGI [49]?
A: 2.45 µM

Q: And the GI50 [50]?
A: 0.33 µM

Q: What about the TGI [50] of the same compound?
A: 0.987 µM

Q: And the GI50 [51]?
A: 0.35 µM

Q: What about the TGI [51] of the same compound?
A: 0.82 µM

Q: And the GI50 [52]?
A: 0.197 µM

Q: And the TGI [52]?
A: 0.437 µM

Q: What about the GI50 [53] of the same compound?
A: 0.173 µM

Q: What about the TGI [53] of the same compound?
A: 0.34 µM

Q: What about the GI50 [54] of the same compound?
A: 0.161 µM

Q: And the TGI [54]?
A: 0.308 µM

Q: And the GI50 [55]?
A: 1.63 µM

Q: And the TGI [55]?
A: 3.01 µM

Q: And the GI50 [56]?
A: 0.261 µM

Q: And the TGI [56]?
A: 0.738 µM

Q: And the GI50 [57]?
A: 0.389 µM

Q: And the TGI [57]?
A: 0.975 µM

Q: And the GI50 [58]?
A: 0.236 µM

Q: And the TGI [58]?
A: 0.588 µM
